“And” between values parts separate entries of the source, which are not always exact repeats. Equal entries are not always repeated. Where two headings read alike, the source gives them in different places.
Tests used:
SARS2 = format: cell-based, SARS-CoV-2; conditions: for Percentage Infection Relative to Appropriate DMSO Control: avg background subtraction; for Percentage Inhibition Average 1 μM / Screening data (Relative infection to DMSO controls) Average 1 μM: SARS2, 1 μM; for Screening data (Relative infection to DMSO controls) Average 1 μM / Screening data (Relative infection to DMSO controls) Average 5 μM / Screening data (Relative infection to DMSO controls) Average 10 μM / Screening data (Relative infection to DMSO controls) Average 25 μM / Screening data (Relative infection to DMSO controls) Average 50 μM / Average (relative infection to DMSO over the 5 tested concentrations): 100=DMSO control; for Percentage Inhibition Average 5 μM / Screening data (Relative infection to DMSO controls) Average 5 μM: SARS2, 5 μM; for Percentage Inhibition Average 10 μM / Screening data (Relative infection to DMSO controls) Average 10 μM: SARS2, 10 μM; for Percentage Inhibition Average 25 μM / Screening data (Relative infection to DMSO controls) Average 25 μM: SARS2, 25 μM; for Percentage Inhibition Average 50 μM / Screening data (Relative infection to DMSO controls) Average 50 μM: SARS2, 50 μM; for Average (relative infection to DMSO over the 5 tested concentrations): SARS2, average over 1 to 50 uM
cells (nuclei count) = conditions: for Relative cell count to DMSO controls, Average 1 μM / Relative cell count to DMSO controls, Average 5 μM / Relative cell count to DMSO controls, Average 10 μM / Relative cell count to DMSO controls, Average 25 μM / Relative cell count to DMSO controls, Average 50 μM: toxicity data, 100=DMSO control; for Relative cell count to DMSO controls, Average (for correlation analysis): average value over the 5 tested concentrations (1 to 50 uM)

Q: With `Cc1ccc(CN(CCN(C)C)Cc2cc(C#CCO)cs2)s1` [SILCS1] as the compound, how does the “Percentage Infection Relative to Appropriate DMSO Control” value (SARS2; 1 uM, Exp 1 (SMW454), single wells) read?
A: 99.35% and 98.10% and 99.72%

Q: And the “Percentage Infection Relative to Appropriate DMSO Control” value (SARS2; 5 uM, Exp 1 (SMW454), single wells)?
A: 112.30% and 117.54% and 117.35%

Q: And the “Percentage Infection Relative to Appropriate DMSO Control” value (SARS2; 10 uM, Exp 1 (SMW454), single wells)?
A: 107.68% and 118.84% and 98.07%

Q: What about the “Percentage Infection Relative to Appropriate DMSO Control” value (SARS2; 25 uM, Exp 1 (SMW454), single wells) of the same compound?
A: 103.38% and 104.01% and 105.61%

Q: And the “Percentage Infection Relative to Appropriate DMSO Control” value (SARS2; 50 uM, Exp 1 (SMW454), single wells)?
A: 103.48% and 93.04% and 95.93%

Q: What about the “Infection Data, Average, Mean” value (SARS2; Average of Exp 1-3, n 9, 1 uM) of the same compound?
A: 122.42%

Q: And the “Infection Data, Average, Mean” value (SARS2; Average of Exp 1-3, n 9, 5 uM)?
A: 119.79%

Q: What about the “Infection Data, Average, Mean” value (SARS2; Average of Exp 1-3, n 9, 10 uM) of the same compound?
A: 100.52%

Q: What about the “Infection Data, Average, Mean” value (SARS2; Average of Exp 1-3, n 9, 25 uM) of the same compound?
A: 61.83%

Q: What about the “Infection Data, Average, Mean” value (SARS2; Average of Exp 1-3, n 9, 50 uM) of the same compound?
A: 43.32%

Q: What about the “Percentage Infection Relative to Appropriate DMSO Control” value (SARS2; Exp 2 (SMW466), 1 uM) of the same compound?
A: 148.68% and 144.39% and 143.85%

Q: And the “Percentage Infection Relative to Appropriate DMSO Control” value (SARS2; Exp 2 (SMW466), 5 uM)?
A: 114.43% and 126.13% and 128.85%

Q: And the “Percentage Infection Relative to Appropriate DMSO Control” value (SARS2; Exp 2 (SMW466), 10 uM)?
A: 102.74% and 102.52% and 110.68%

Q: And the “Percentage Infection Relative to Appropriate DMSO Control” value (SARS2; Exp 2 (SMW466), 25 uM)?
A: 28.51% and 36.47% and 30.25%

Q: And the “Percentage Infection Relative to Appropriate DMSO Control” value (SARS2; Exp 3 (SMW480), 1 uM)?
A: 128.15% and 110.09% and 129.44%

Q: What about the “Percentage Infection Relative to Appropriate DMSO Control” value (SARS2; Exp 3 (SMW480), 5 uM) of the same compound?
A: 127.64% and 114.03% and 119.89%

Q: What about the “Percentage Infection Relative to Appropriate DMSO Control” value (SARS2; Exp 3 (SMW480), 10 uM) of the same compound?
A: 73.36% and 110.69% and 80.10%

Q: What about the “Percentage Infection Relative to Appropriate DMSO Control” value (SARS2; Exp 3 (SMW480), 25 uM) of the same compound?
A: 55.94% and 38.83% and 53.44%

Q: What about the “Percentage Infection Relative to Appropriate DMSO Control” value (SARS2; Exp 3 (SMW480), 50 uM) of the same compound?
A: 27.26% and 20.30% and 23.61%

Q: And the “Percentage Inhibition Average 1 μM” value (SARS2)?
A: −22.42%

Q: What about the “Screening data (Relative infection to DMSO controls) Average 1 μM” value (SARS2) of the same compound?
A: 122.42

Q: And the “Percentage Inhibition Average 5 μM” value (SARS2)?
A: −19.79%

Q: And the “Screening data (Relative infection to DMSO controls) Average 5 μM” value (SARS2)?
A: 119.79

Q: And the “Percentage Inhibition Average 10 μM” value (SARS2)?
A: −0.52%

Q: And the “Screening data (Relative infection to DMSO controls) Average 10 μM” value (SARS2)?
A: 100.52

Q: What about the “Percentage Inhibition Average 25 μM” value (SARS2) of the same compound?
A: 38.17%

Q: What about the “Screening data (Relative infection to DMSO controls) Average 25 μM” value (SARS2) of the same compound?
A: 61.83

Q: And the “Percentage Inhibition Average 50 μM” value (SARS2)?
A: 56.68%

Q: And the “Screening data (Relative infection to DMSO controls) Average 50 μM” value (SARS2)?
A: 43.32

Q: And the “Average (relative infection to DMSO over the 5 tested concentrations)” value (SARS2)?
A: 89.58

Q: What about the “Relative cell count to DMSO controls, Average 1 μM” value (cells (nuclei count)) of the same compound?
A: 98.82

Q: What about the “Relative cell count to DMSO controls, Average 5 μM” value (cells (nuclei count)) of the same compound?
A: 99.54

Q: And the “Relative cell count to DMSO controls, Average 10 μM” value (cells (nuclei count))?
A: 108.52

Q: What about the “Relative cell count to DMSO controls, Average 25 μM” value (cells (nuclei count)) of the same compound?
A: 116.28

Q: And the “Relative cell count to DMSO controls, Average 50 μM” value (cells (nuclei count))?
A: 84.14

Q: And the “Toxicity Data, Average, Mean” value (cells (nuclei count); Average of Exp 1-3, n 9, 1 uM)?
A: 98.82%

Q: What about the “Toxicity Data, Average, Mean” value (cells (nuclei count); Average of Exp 1-3, n 9, 5 uM) of the same compound?
A: 99.54%

Q: What about the “Toxicity Data, Average, Mean” value (cells (nuclei count); Average of Exp 1-3, n 9, 10 uM) of the same compound?
A: 108.52%

Q: What about the “Toxicity Data, Average, Mean” value (cells (nuclei count); Average of Exp 1-3, n 9, 25 uM) of the same compound?
A: 116.28%

Q: And the “Toxicity Data, Average, Mean” value (cells (nuclei count); Average of Exp 1-3, n 9, 50 uM)?
A: 84.14%

Q: And the “Toxicity Data, nuclei count relative to DMSO controls” value (cells (nuclei count); Exp 1 (SMW454), 1 uM)?
A: 105.2% and 108.8% and 106.3%

Q: What about the “Toxicity Data, nuclei count relative to DMSO controls” value (cells (nuclei count); Exp 1 (SMW454), 5 uM) of the same compound?
A: 102.9% and 104.5% and 102.2%

Q: What about the “Toxicity Data, nuclei count relative to DMSO controls” value (cells (nuclei count); Exp 1 (SMW454), 10 uM) of the same compound?
A: 107.4% and 106.9% and 105.6%

Q: What about the “Toxicity Data, nuclei count relative to DMSO controls” value (cells (nuclei count); Exp 1 (SMW454), 25 uM) of the same compound?
A: 94.7% and 94.9% and 95.9%

Q: What about the “Toxicity Data, nuclei count relative to DMSO controls” value (cells (nuclei count); Exp 1 (SMW454), 50 uM) of the same compound?
A: 83.8% and 87.1% and 84.9%

Q: What about the “Toxicity Data, nuclei count relative to DMSO controls” value (cells (nuclei count); Exp 2 (SMW466), 1 uM) of the same compound?
A: 93.5% and 94.5% and 96.6%

Q: And the “Toxicity Data, nuclei count relative to DMSO controls” value (cells (nuclei count); Exp 2 (SMW466), 5 uM)?
A: 107.1% and 94.1% and 106.7%

Q: What about the “Toxicity Data, nuclei count relative to DMSO controls” value (cells (nuclei count); Exp 2 (SMW466), 10 uM) of the same compound?
A: 107.3% and 102.2% and 104.0%

Q: And the “Toxicity Data, nuclei count relative to DMSO controls” value (cells (nuclei count); Exp 2 (SMW466), 25 uM)?
A: 130.6% and 124.7% and 133.0%

Q: What about the “Toxicity Data, nuclei count relative to DMSO controls” value (cells (nuclei count); Exp 2 (SMW466), 50 uM) of the same compound?
A: 88.5% and 77.1% and 78.5%

Q: And the “Toxicity Data, nuclei count relative to DMSO controls” value (cells (nuclei count); Exp 3 (SMW480), 1 uM)?
A: 89.7% and 102.3% and 92.4%

Q: What about the “Toxicity Data, nuclei count relative to DMSO controls” value (cells (nuclei count); Exp 3 (SMW480), 5 uM) of the same compound?
A: 88.1% and 95.7% and 94.5%

Q: And the “Toxicity Data, nuclei count relative to DMSO controls” value (cells (nuclei count); Exp 3 (SMW480), 10 uM)?
A: 124.6% and 98.4% and 120.2%

Q: And the “Toxicity Data, nuclei count relative to DMSO controls” value (cells (nuclei count); Exp 3 (SMW480), 25 uM)?
A: 120.8% and 130.3% and 121.5%

Q: What about the “Toxicity Data, nuclei count relative to DMSO controls” value (cells (nuclei count); Exp 3 (SMW480), 50 uM) of the same compound?
A: 72.1% and 98.8% and 86.4%

Q: And the “Relative cell count to DMSO controls, Average (for correlation analysis)” value (cells (nuclei count))?
A: 101.46

Q: Which “SARS2 antiviral activity” value (SARS2) does the source give for `Cc1ccc(CN(CCN(C)C)Cc2ccccc2)o1` [SILCS11] here?
A: improved activity over SILCS1

Q: What about the “Percentage Inhibition Average 1 μM” value (SARS2) of the same compound?
A: 24.29%

Q: And the “Screening data (Relative infection to DMSO controls) Average 1 μM” value (SARS2)?
A: 75.71

Q: What about the “Percentage Inhibition Average 5 μM” value (SARS2) of the same compound?
A: 21.46%

Q: And the “Screening data (Relative infection to DMSO controls) Average 5 μM” value (SARS2)?
A: 78.54

Q: What about the “Percentage Inhibition Average 10 μM” value (SARS2) of the same compound?
A: 45.84%

Q: What about the “Screening data (Relative infection to DMSO controls) Average 10 μM” value (SARS2) of the same compound?
A: 54.16

Q: And the “Percentage Inhibition Average 25 μM” value (SARS2)?
A: 64.99%

Q: What about the “Screening data (Relative infection to DMSO controls) Average 25 μM” value (SARS2) of the same compound?
A: 35.01

Q: What about the “Percentage Inhibition Average 50 μM” value (SARS2) of the same compound?
A: 79.69%

Q: What about the “Screening data (Relative infection to DMSO controls) Average 50 μM” value (SARS2) of the same compound?
A: 20.31

Q: And the “Average (relative infection to DMSO over the 5 tested concentrations)” value (SARS2)?
A: 52.75

Q: And the “Relative cell count to DMSO controls, Average 1 μM” value (cells (nuclei count))?
A: 111.01

Q: What about the “Relative cell count to DMSO controls, Average 5 μM” value (cells (nuclei count)) of the same compound?
A: 106.15

Q: And the “Relative cell count to DMSO controls, Average 10 μM” value (cells (nuclei count))?
A: 120.55

Q: What about the “Relative cell count to DMSO controls, Average 25 μM” value (cells (nuclei count)) of the same compound?
A: 105.91

Q: And the “Relative cell count to DMSO controls, Average 50 μM” value (cells (nuclei count))?
A: 80.38

Q: What about the “Toxicity Data, Average, Mean (relative to DMSO control)” value (cells (nuclei count); Average of Exp 1-3, 1 uM) of the same compound?
A: 111.01%

Q: And the “Toxicity Data, Average, Mean (relative to DMSO control)” value (cells (nuclei count); Average of Exp 1-3, 5 uM)?
A: 106.15%

Q: What about the “Toxicity Data, Average, Mean (relative to DMSO control)” value (cells (nuclei count); Average of Exp 1-3, 10 uM) of the same compound?
A: 120.55%

Q: What about the “Toxicity Data, Average, Mean (relative to DMSO control)” value (cells (nuclei count); Average of Exp 1-3, 25 uM) of the same compound?
A: 105.91%

Q: What about the “Toxicity Data, Average, Mean (relative to DMSO control)” value (cells (nuclei count); Average of Exp 1-3, 50 uM) of the same compound?
A: 80.38%

Q: What about the “Relative cell count to DMSO controls, Average (for correlation analysis)” value (cells (nuclei count)) of the same compound?
A: 104.80

Reference: patent US20240132484A1, “BROAD SPECTRUM ANTIVIRAL COMPOUNDS TARGETING THE SKI COMPLEX” (priority 2020, published 2024)
